# Where two headings read alike, the source gives them in different places.
# Columns and labels:
# [1] = tested on: A20 cells phagocytosed by DCs; assay: Phagocytosis assay of A20 by DCs; assay type: cell-based, murine; details: A20 treated 48 h, co-incubated with DCs 1:1 for 2 h
# Description: A20 phagocytosis was quantified using A20 cells labeled with CellTrace Violet (Invitrogen, Carlsbad, Calif.). Labeled A20 were left untreated or treated with Dox MPs for 48 h (3 wells per group) at various concentrations. Controls included soluble Dox (at the same concentrations) and blank MPs (at equivalent weights). Treated A20 were washed and co-incubated with DCs at a 1:1 ratio for 2 h, stained with anti-CD11c-APC-Cy7 (BD), and analyzed by flow cytometry. The percentage of double-positive cells (CD11c and CellTrace Violet) was determined.
# A20 cells [2] = assay: MTS viability assay, A20 (Example 1); assay type: cell-based, murine; details: Mus musculus, 4.5 μg/mL Dox, MPs 4:1 loading, read-out: viable A20
# Description: The A20 cell line (a BALB/c B cell lymphoma) and the EL4 cell line (a C57BL/6 T cell lymphoma) were purchased from ATCC (Manassas, Va.). Tumor cells were cultured in RPMI-1640 medium (Gibco, Carlsbad, Calif.) supplemented with 10% heat-inactivated FCS (HyClone, Logan, Utah), 100 U/mL penicillin, 100 μg/mL streptomycin, and 50 μM 2-ME (All from Gibco), as complete medium.
# To determine the cytotoxic activity of MPs against A20 and EL4, the 3-(4,5 dimethylthiazol-2-yl)-5-(3-carboxymethoxyphenyl-2-(4-sulfophenyl)-2H-tetrazolium (MTS) assay for viability was conducted using CellTiter 96® AQueous Non-Radioactive Cell Proliferation Assay (Promega, Madison, Wis.). Five thousand A20 and EL4 cells were separately incubated with soluble Dox or Dox/CpG MPs (4:1 loading) in 96-well plates for 24, 48, and 72 h (four wells per group) at a final Dox concentration of 4.5 μg/mL. Media or blank MPs at equivalent weights were used as negative controls. The MTS/PMS reagent was then added for 4 h at 37° C. […] Absorbance was read at 490 nm using Thermomax Microplate Reader (Molecular Devices, Sunnyvale, Calif.). […] Viability was assessed as before.
# Percent survival was expressed as the ratio of absorbance of treated cells relative to that of untreated cells in media group (after subtracting the absorbance of the blank from each) multiplied by 100. […]
# A20 cells [3] = assay: MTS viability assay, A20 (Example 2); assay type: cell-based, murine
# Description: (§1) The MTS assay for viability was used to determine the cytotoxic activity of Dox MPs against A20 and DCs (Promega, Madison, Wis.). Briefly, 5×10^3 A20 cells or DCs were incubated with Dox MPs (8 μg/mg) for 24, 48 or 72 h (4 wells per group) at a range of Dox concentrations. Blank MPs were used as negative controls. MTS was added for 4 h at 37° C. Following centrifugation, 90 μl of supernatant was removed. Absorbance was read at 490 nm using a Thermomax Microplate Reader (Molecular Devices, Sunnyvale, Calif.).
# [4] = lymphoma patients; 30 mg/m^2 Dox; cited from earlier work
# bone-marrow-derived DCs = assay: MTS viability assay, DCs (Example 2); assay type: cell-based, BALB/c mice; details: 24 h; 1.125 μg/mL Dox; FIG. 8B
# Description: To generate murine bone-marrow-derived DCs, bone marrow cells were flushed from tibias and femurs of BALB/c mice, and mononuclear cells isolated using Ficoll gradient separation (Fico/Lite-LM, Atlanta Biologicals, Flowery Branch, Ga.). Cells were cultured in medium supplemented with 20 ng/mL each GM-CSF and IL4 (PeproTech, Rocky Hill, N.J.) for 7 days. Non-adherent cells were harvested. Cells were >70% DCs as determined by CD11c staining.
# as §1
structure (smiles),measurement,setting,value
"COc1cccc2c1C(=O)c1c(O)c3c(c(O)c1C2=O)C[C@@](O)(C(=O)CO)C[C@@H]3O[C@H]1C[C@H](N)[C@H](O)[C@H](C)O1 [soluble Dox, Doxorubicin]",phagocytosis of A20 tumor cells by DCs,[1],enhanced phagocytosis of A20 cells
same,viability at 4.5 µg/mL,"A20 cells [2]; A20, 24 h, day 1",26%
same,viability at 4.5 µg/mL,"A20 cells [2]; A20, 48 h, day 2",4%
same,survival of A20,"A20 cells [3]; 24 h, 1.125 μg/mL Dox, FIG. 8B comparison with DCs",26%
same,viability at 0.5625 µg/mL,"A20 cells [3]; Mus musculus, A20, Day 1 (24 h), 0.5625 μg/mL Dox, FIG. 8A",87%
same,viability at 1.125 µg/mL,"A20 cells [3]; Mus musculus, A20, Day 1 (24 h), 1.125 μg/mL Dox, FIG. 8A",46%
same,viability at 1.125 µg/mL,"A20 cells [3]; Mus musculus, A20, Day 2 (48 h), 1.125 μg/mL Dox",5%
same,peak plasma concentration,[4],278 ng/mL
same,survival of DCs,bone-marrow-derived DCs,19%

# — patent US10314854B2, “Methods for treating tumors in situ including intratumor injection of cytotoxic particles and immune checkpoint blockade therapy” (University of Iowa Research Foundation, priority 2015, dated 2019)
